# Measurements as given in ChEMBL document CHEMBL1159275, “Mycalolides D and E, new cytotoxic macrolides from a collection of the stony coral Tubastrea faulkneri” (1995).
# Assay: Cytotoxicity against human NCI60 cells
# Assay type: functional
# Settings: read-out: LC50 (the source's name)
row,SMILES,CC50 [nM]
1,COCC(OC)C(=O)OC(CCC(C)C(CC1OC(=O)CC(O)C/C=C/C(=O)CC(C)C(=O)NC(=O)c2coc(n2)-c2coc(n2)/C=C/CC(OC)C1C)OC)C(C)C(OC(C)=O)C(C)/C=C/N(C)C=O (configuration not stated) [MYCALOLIDE D],600
2,CO[C@H]1C/C=C/c2nc(co2)-c2nc(co2)-c2nc(co2)[C@@H](OC)[C@@H](C)C(=O)/C=C/C[C@H](O)CC(=O)O[C@@H](C[C@H](OC)[C@@H](C)CC[C@@H](OC(=O)[C@@H](C)OC)[C@H](C)[C@H](OC(C)=O)[C@H](C)/C=C/N(C)C=O)[C@@H]1C [MYCALOLIDE C],2500
